In US20240124455A1, “TRICYCLIC COMPOUNDS AS ANTICANCER AGENTS” (JINGRUI BIOPHARMA CO., LTD., priority 2021, published 2024):

Key:
BRD4 (BD1) = biological target: T1, BRD4 (BD1) (Homo sapiens, UniProt O60885); assay: BRD4 (BD1) binding assay (HTRF); conditions: BRD4 (D1) with GST tag and biotin-labeled acetylated peptide
T1 construct: purchased Reaction Biology Company RD-11-157
Method: The BRD4 (BD1) biochemical binding assay was carried out by Sundia MediTech Co., Ltd. • Materials and suppliers: • BRD4(D1): Reaction Biology Company; catalog #: RD-11-157; batch #1319 • Positive control compound: AZD5153; Selleck, catalog #, S8344, batch #, 1 • Peptide: GL China; catalog #329934; batch #, P171229-JQ329934 • DMSO: Sigma; catalog #, D8418-1L; batch #, SHBG3288V • OptiPlate-384: PerkinElmer; catalog #6007270, batch #, 8240-17211 • Instruments: • Centrifuge (manufacturer: Eppendorf, model: 5430) • Microplate reader (manufacturer: Perkin Elmer, model: EnVision) • Sonic pipetting system (manufacturer: Labcyte, model: Echo® 550) • In the assay, the HTRF method uses an anti-GST antibody with a cryptate chelate-labeled europium element as the donor, and the d2 or XL665-labeled streptavidin (having high affinity with biotin) as the acceptor to study the interaction between BRD4 (D1) with GST tag and biotin-labeled acetylated peptide. When the donor and acceptor are close to each other due to the binding of BRD4 (D1) to the biotin-labeled peptide, the excitation of the donor triggers fluorescence resonance energy transfer (FRET) to the acceptor, which then emits fluorescence at a specific wavelength (665 nm). • General assay procedure: 20 nL of compound solution was transferred to the 384-well plate by Labcyte Echo® 550 liquid handler, and 5 μL of BRD4 (BD1) solution from Reaction Biology Company, RD-11-157, or the assay buffer was added to each well. After centrifuge for 1 minute and incubating 15 minutes at rt, the 5 μL peptide (GL China, Catalog #329934, Batch, P171229-JQ329934) was added to each well. After centrifuge for 1 minute at 1000 rpm, 10 μL detect solution was added to each well. After incubating for 60 minutes, centrifuging 1 minute, the signals were measured by Microplate reader. Data analysis: The inhibition percentage in the presence of the compound was calculated based on the following formula:
% Inhibition=(Signal_max−Signal sample/Signal_max−Signal_min)×100
Fitting the data in GrphaPad Prism V5.0 software with log(inhibitor) vs. response-Variable slope, the IC50 was obtained.

MV-4-11 = assay: Cell proliferation assay (Cell Titer-Glo); type: cell-based; conditions: MV-4-11 cells, compound treatment 72 h, CellTiter-Glo
Method: In order to evaluate the activity of the compound on cells, the Cell Titer-Glo assay was used for detection. The cells were incubated in a 37° C. incubator and treated with compounds for 72 hours. At the end of the reaction, the number of living cells in the culture is measured by quantitative determination of ATP. ATP is an indicator of the metabolism of living cells. With Cell Titer-Glo, the luminescence signal produced by cell lysis is proportional to the amount of ATP present, and the amount of ATP is directly proportional to the number of cells in the culture. These signal ratios reflect the cell activity of the compound at that concentration in the well under this condition. • (1) Seeding cells • Trypsinize cells and count cell density with the automated cell counter. • Dilute cell suspension to required density according to seeding density. • Seed 100 ul cells into 96-well plate in growth medium according to the plate map. Medium only is used as background control (Min). • Incubate at 37° C., 5% CO2 overnight. • (2) Compound treatment • Make 200× compound solution in DMSO. • Dilute compounds with growth medium to 3× final concentration by addition of 3 ul 200× compounds to 197 ul growth medium. • Add 50 ul diluted compounds to cells and incubate at 37° C., 5% CO2 for 72 h. • (3) Measurement • Equilibrate the assay plate to room temperature prior to measurement. • Add 40 ul of CellTiter-Glo® Reagent into each well. • Mix contents for 2 minutes on an orbital shaker to induce cell lysis. • Incubate at room temperature for 60 minutes to stabilize luminescent signal. • Record luminescence on Envision. • (4) Data analysis • (1) Using GraphPad Prism 5. • (2) % Inh=(Max signal−Compound signal)/(Max signal−Min signal)×100. • (3) Max signal was obtained from the action of DMSO. • (4) Min signal was obtained from the action of medium only.

## COC(=O)c1c2c(nn1C)c1ncc(-c3c(C)nnn3C)cc1n2C(c1ncccc1F)C1CCOCC1 (centres unmarked) [Example 9, Methyl 6-(1,4-dimethyl-1H-1,2,3-triazol-5-yl)-4-((3-fluoropyridin-2-yl)(tetrahydro-2H-pyran-4-yl)methyl)-2-methyl-2,4-dihydropyrazolo[3′,4′:4,5]pyrrolo[3,2-b]pyridine-3-carboxylate]
BRD4 (BD1)
  IC50: 0.51 nM
MV-4-11; Homo sapiens, MV4-11, 72 h
  IC50: 1.52 nM

## Cc1nnn(C)c1-c1cnc2c3nn(C)c(C(C)(C)O)c3n(C(c3ccccc3)C3CCOCC3)c2c1 (single isomer, unassigned) [Example 4, 2-(6-(1,4-Dimethyl-1H-1,2,3-triazol-5-yl)-2-methyl-4-(phenyl(tetrahydro-2H-pyran-4-yl)methyl)-2,4-dihydropyrazolo[3′,4′:4,5]pyrrolo[3,2-b]pyridin-3-yl)propan-2-ol]
BRD4 (BD1)
  IC50: 0.18 nM
MV-4-11
  IC50: 1.28 nM

## [2H]C([2H])([2H])c1nnn(C)c1-c1cnc2c3nn(C([2H])([2H])[2H])c(C(C)(C)O)c3n(C(c3ncccc3F)C3CCOCC3)c2c1 (single isomer, unassigned) [Example 23, 2-(4-((3-Fluoropyridin-2-yl)(tetrahydro-2H-pyran-4-yl)methyl)-2-(methyl-d3)-6-(1-methyl-4-(methyl-d3)-1H-1,2,3-triazol-5-yl)-2,4-dihydropyrazolo[3′,4′:4,5]pyrrolo[3,2-b]pyridin-3-yl)propan-2-ol]
BRD4 (BD1)
  IC50: 4.4 nM
MV-4-11
  IC50: 66.8 nM

## Cc1nnn(C)c1-c1cnc2c3nn(C)c(C(C)(C)O)c3n(C(c3ccccc3)C3CCOCC3)c2c1 (racemic) [Example 2, 2-(6-(1,4-Dimethyl-1H-1,2,3-triazol-5-yl)-2-methyl-4-(phenyl(tetrahydro-2H-pyran-4-yl)methyl)-2,4-dihydropyrazolo[3′,4′:4,5]pyrrolo[3,2-b]pyridin-3-yl)propan-2-ol]
BRD4 (BD1)
  IC50: 0.3 nM
MV-4-11; Homo sapiens, MV4-11, 72 h
  IC50: 1.48 nM
